# In paper PMC9321810, “Antiviral Cyclopropane Acids from Deep-Sea-Derived Fungus Aspergillus sydowii” (Marine Drugs, 2022):
# Where two headings read alike, the source gives them in different places.
# Experiments:
# in vitro = settings: dog
# [1] = test system: influenza virus A/WSN/33 (H1N1); assay: cytopathic effect (CPE) reduction assay, anti-influenza virus; assay type: cell-based, influenza A/WSN/33 (H1N1)
# [2] = H1N1|WSN, MDCK, 40 h, read-out: IC50, inhibitory activity against influenza virus A/WSN/33 (H1N1), infected MDCK cells, MOI = 0.1, 40 h incubation, CellTiter-Glo readout
compound,measurement,setting,value
"COC(=O)C(O)CC(=O)C1(C)C(C)C1CCC(C)=O (centres unmarked) [Compound 1, sydocyclopropane A]",CC50 at 40 h,in vitro,> 100 µM
same,IC50,[1]; [2],26.7 ± 0.9 µM
"CC(=O)C1(C)C(C)C1CC(=O)O (centres unmarked) [Compound 2, Sydocyclopropane B]",CC50 at 40 h,in vitro,> 100 µM
same,IC50,[1]; [2],29.5 ± 1.4 µM
"CC(=O)CCC1C(C)C1(C)C(=O)O (centres unmarked) [Compound 3, sydocyclopropane C]",CC50 at 40 h,in vitro,> 100 µM
same,IC50,[1]; [2],77.2 ± 0.5 µM
"CC(=O)CCC1C(C)C1(C)C(=O)O (centres unmarked) [Compound 4, sydocyclopropane D]",IC50,"[1]; read-out: IC50, inhibitory activity against influenza virus A/WSN/33 (H1N1), infected MDCK cells, MOI = 0.1, 40 h incubation, CellTiter-Glo readout",66.4 ± 1.7 µM
"CC(=O)C=CC1C(C)C1(C)C(C)=O (centres unmarked) [Compound 5, hamavellone B]",CC50 at 40 h,in vitro,> 100 µM
same,IC50,[1]; [2],35.8 ± 3.2 µM
"CCOC(=O)C1=C[C@@H](OC(CC)CC)[C@H](NC(C)=O)[C@@H](N)C1 [OSV, oseltamivir, reference compound]",CC50 at 40 h,in vitro,> 100 µM
same,IC50,[1]; [2],18.1 ± 1.2 µM
